Columns and labels:
[1] = test system: Italian ryegrass; assay: Test E Italian ryegrass; format: in vivo, Lolium multiflorum; conditions: Preemergence
[2] = test system: blackgrass; assay: Test E blackgrass; format: in vivo, Alopecurus myosuroides; conditions: Preemergence
[3] = test system: wheat; assay: Test B pre/postemergence wheat; format: in vivo, Triticum aestivum
Outline: (§1)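 Herbicidal effect was estimated by eye on a ten-point control scale after plants spent twelve to sixteen days in a greenhouse following soil or foliar treatment. Foliar sprays targeted plants at one to four leaves; all doses were formulated in a non-phytotoxic solvent with surfactant.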

[4] = test system: bedstraw; assay: Test B pre/postemergence bedstraw; format: in vivo, Galium aparine
Outline: as §1

[5] = test system: wild oat; assay: Test E wild oat; format: in vivo, Avena fatua; conditions: Preemergence
[6] = test system: green foxtail; assay: Test E green foxtail; format: in vivo, Setaria viridis; conditions: Preemergence
[7] = test system: purple nutsedge; assay: Test B pre/postemergence purple nutsedge; format: in vivo, Cyperus rotundus
Outline: as §1

[8] = test system: winter barley; assay: Test E winter barley; format: in vivo, Hordeum vulgare; conditions: Preemergence
[9] = test system: smallflower flatsedge; assay: Test B flood test smallflower flatsedge; format: in vivo, Cyperus difformis
Outline: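 Each value is a visual injury score relative to controls, with 10 meaning complete control and 0 no effect. Evaluation took place twelve to sixteen days after the 2-leaf-stage plants were treated and kept in the greenhouse.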

[10] = test system: winter wheat; assay: Test E winter wheat; format: in vivo, Triticum aestivum; conditions: Preemergence
[11] = test system: winter wheat; assay: Test E winter wheat; format: in vivo, Triticum aestivum; conditions: Postemergence
Outline: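 Visually scored herbicidal effect relative to untreated plants, taken ~21 to 28 days post-application; compound in solvent with surfactant; postemergence sprays at the 1- to 4-leaf stage.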

[12] = Rate 125 g/ha, 0 to 100 scale (0 no effect, 100 complete control)
[13] = Rate 500 g/ha, 0 to 100 scale (0 no effect, 100 complete control)
[14] = Rate 1000 g/ha, 0 to 100 scale, 0 no effect, 100 complete control
[15] = Preemergence, Rate 250 g/ha, scale of 0 to 10 where 0 is no effect and 10 is complete control
[16] = Preemergence, Rate 500 g/ha, scale of 0 to 10 where 0 is no effect and 10 is complete control
[17] = Rate 62 g/ha, Postemergence, scale 0 to 10 (0 no effect, 10 complete control)
[18] = Rate 125 g/ha, Postemergence, scale of 0 to 10 where 0 is no effect and 10 is complete control
[19] = Rate 125 g/ha, Preemergence, scale of 0 to 10 where 0 is no effect and 10 is complete control
[20] = Rate 250 g/ha, Postemergence, scale of 0 to 10 where 0 is no effect and 10 is complete control
[21] = Rate 500 g/ha, Postemergence, scale 0 to 10, 0 no effect, 10 complete control
[22] = Rate 125 g/ha, Pre-emergence, flood test species, scale 0 to 10 where 0 is no effect and 10 is complete control
[23] = Rate 250 g/ha, Pre-emergence, flood-test species, scale 0 to 10, 0 is no effect, 10 is complete control
[24] = Rate 500 g/ha, Pre-emergence, flood test species, scale 0 to 10 (0 no effect, 10 complete control)
[25] = Rate 1000 g/ha, 0 to 100 scale where 0 is no effect and 100 is complete control
[26] = Rate 500 g/ha, 0 to 100 scale, 0 is no effect, 100 is complete control
[27] = Postemergence, Rate 125 g/ha, scale 0 to 10, 0 is no effect, 10 is complete control
[28] = Postemergence, Rate 250 g/ha, scale 0 to 10, 0 is no effect, 10 is complete control
[29] = Preemergence, Rate 62 g/ha, scale 0 to 10 (0 no effect, 10 complete control)
[30] = Rate 62 g/ha, Postemergence, scale of 0 to 10 where 0 is no effect and 10 is complete control

CC(C)N(C(=O)n1oc(=O)n(CC(C)(C)C)c1=O)c1ccc(F)cc1F [Compound 277]
Plant response rating, I. Ryegrass [1, 12]: 65 | I. Ryegrass plant response rating (0 to 100 scale) ([1]; Rate 250 g/ha): 75 | Plant response rating, I. Ryegrass [1, 13]: 95 | Plant response rating, I. Ryegrass [1, 14]: 100 | Plant response rating, Blackgrass [2, 12]: 60 | Blackgrass plant response rating (0 to 100 scale) ([2]; Rate 250 g/ha): 100 | Plant response rating, Blackgrass [2, 13]: 70 | Plant response rating, Blackgrass [2, 14]: 100 | Wheat plant response rating [3, 15]: 0 | Plant response rating, Wheat [3, 16]: 4 | Wheat plant response rating [3, 17]: 0 | Wheat plant response rating [3, 18]: 0 | Wheat plant response rating [3, 19]: 0 | Plant response rating, Wheat [3, 20]: 0 | Wheat plant response rating [3, 21]: 0 | Bedstraw plant response rating [4, 15]: 0 | Plant response rating, Bedstraw [4, 16]: 2 | Bedstraw plant response rating [4, 17]: 5 | Bedstraw plant response rating [4, 18]: 6 | Bedstraw plant response rating [4, 19]: 0 | Plant response rating, Bedstraw [4, 20]: 8 | Bedstraw plant response rating [4, 21]: 8 | Plant response rating, Wild oat [5, 12]: 50 | Wild oat plant response rating (0 to 100 scale) ([5]; Rate 250 g/ha): 60 | Plant response rating, Wild oat [5, 13]: 65 | Plant response rating, Wild oat [5, 14]: 70 | Plant response rating, Green foxtail [6, 12]: 95 | Green foxtail plant response rating (0 to 100 scale) ([6]; Rate 250 g/ha): 100 | Plant response rating, Green foxtail [6, 13]: 100 | Plant response rating, Green foxtail [6, 14]: 100 | Nutsedge plant response rating ([7]; Preemergence, Rate 62 g/ha, scale of 0 to 10 where 0 is no effect and 10 is complete control): 0 | Nutsedge plant response rating [7, 15]: 0 | Plant response rating, Nutsedge [7, 16]: 0 | Nutsedge plant response rating [7, 17]: 0 | Nutsedge plant response rating [7, 18]: 0 | Nutsedge plant response rating [7, 19]: 0 | Plant response rating, Nutsedge [7, 20]: 0 | Nutsedge plant response rating [7, 21]: 0 | Plant response rating, Barley (winter) [8, 12]: 30 | Barley (winter) plant response rating (0 to 100 scale) ([8]; Rate 250 g/ha): 50 | Plant response rating, Barley (winter) [8, 13]: 65 | Plant response rating, Barley (winter) [8, 14]: 50 | S. Flatsedge plant response rating ([9]; Rate 62 g/ha, headed Pre-emergence (flood test species), scale 0 to 10 (0 no effect, 10 complete control)): 0 | S. Flatsedge plant response rating [9, 22]: 0 | S. Flatsedge plant response rating [9, 23]: 0 | S. Flatsedge plant response rating [9, 24]: 5 | Plant response rating, Wheat (winter) [10, 12]: 30 | Wheat (winter) plant response rating (0 to 100 scale) ([10]; Rate 250 g/ha): 20 | Plant response rating, Wheat (winter) [10, 13]: 10 | Plant response rating, Wheat (winter) [10, 14]: 50 | Plant response rating, Wheat (winter) ([11]; Rate 125 g/ha, 0 to 100 scale, 0 is no effect, 100 is complete control): 0 | Plant response rating, Wheat (winter) [11, 25]: 10 | Wheat (winter) plant response rating ([11]; Rate 250 g/ha, 0 to 100 scale where 0 is no effect and 100 is complete control): 0 | Plant response rating, Wheat (winter) [11, 26]: 0

CC1CC1n1c(=O)on(C(=O)N(c2ccc(Cl)cc2)C(C)C)c1=O (stereo not drawn) [Compound 369]
Plant response rating, I. Ryegrass ([1]; Rate 250 g/ha, 0 to 100 scale): 50 | Plant response rating, I. Ryegrass [1, 13]: 65 | Plant response rating, I. Ryegrass [1, 14]: 70 | Plant response rating, Blackgrass ([2]; Rate 250 g/ha, 0 to 100 scale): 85 | Plant response rating, Blackgrass [2, 13]: 70 | Plant response rating, Blackgrass [2, 14]: 100 | Plant response rating, Wheat [3, 27]: 0 | Plant response rating, Wheat [3, 28]: 0 | Plant response rating, Wheat [3, 29]: 0 | Wheat plant response rating (0 to 10 scale) ([3]; Preemergence, Rate 125 g/ha): 0 | Wheat plant response rating [3, 15]: 0 | Wheat plant response rating [3, 16]: 0 | Wheat plant response rating [3, 30]: 0 | Plant response rating, Wheat [3, 21]: 4 | Plant response rating, Wild oat ([5]; Rate 250 g/ha, 0 to 100 scale): 65 | Plant response rating, Wild oat [5, 13]: 70 | Plant response rating, Wild oat [5, 14]: 75 | Plant response rating, Green foxtail ([6]; Rate 250 g/ha, 0 to 100 scale): 50 | Plant response rating, Green foxtail [6, 13]: 85 | Plant response rating, Green foxtail [6, 14]: 100 | Plant response rating, Nutsedge [7, 27]: 0 | Plant response rating, Nutsedge [7, 28]: 0 | Plant response rating, Nutsedge [7, 29]: 0 | Nutsedge plant response rating (0 to 10 scale) ([7]; Preemergence, Rate 125 g/ha): 0 | Nutsedge plant response rating [7, 15]: 0 | Nutsedge plant response rating [7, 16]: 5 | Nutsedge plant response rating [7, 30]: 0 | Plant response rating, Nutsedge [7, 21]: 3 | Plant response rating, Barley (winter) ([8]; Rate 250 g/ha, 0 to 100 scale, 0 no effect, 100 complete control): 70 | Plant response rating, Barley (winter) [8, 13]: 50 | Plant response rating, Barley (winter) [8, 14]: 60 | Plant response rating, S. Flatsedge ([9]; Postemergence (flood test), Rate 125 g/ha, scale 0 to 10, 0 is no effect, 10 is complete control): 2 | S. Flatsedge plant response rating ([9]; Rate 62 g/ha, Postemergence (flood test species), scale of 0 to 10 where 0 is no effect and 10 is complete control): 0 | Plant response rating, S. Flatsedge (0 to 10 scale, 0 is no effect, 10 is complete control) ([9]; Rate 62 g/ha, flood test species, Pre-emergence, visual evaluation after twelve to sixteen days): 0 | S. Flatsedge plant response rating [9, 22]: 0 | S. Flatsedge plant response rating [9, 23]: 0 | Plant response rating, S. Flatsedge ([9]; Rate 500 g/ha, listed under Postemergence (flood test species), scale 0 to 10, 0 no effect, 10 complete control): 4 | S. Flatsedge plant response rating [9, 24]: 0 | Plant response rating, S. Flatsedge ([9]; flood test species, listed under Postemergence, Rate 250 g/ha, scale 0 to 10, 0 is no effect, 10 is complete control): 2 | Plant response rating, Wheat (winter) ([10]; Rate 250 g/ha, 0 to 100 scale): 60 | Plant response rating, Wheat (winter) [10, 13]: 55 | Plant response rating, Wheat (winter) [10, 14]: 70 | Plant response rating, Wheat (winter) ([11]; Rate 250 g/ha, 0 to 100 scale, 0 is no effect, 100 is complete control): 60 | Plant response rating, Wheat (winter) [11, 25]: 70 | Plant response rating, Wheat (winter) [11, 26]: 70
